13 molecules from ChEMBL document CHEMBL1201862, “PubChem BioAssay data set” (2004) can be followed below.

Assay [1] is described as follows: control 3'UTR Renilla luciferase suppression, dose response, counter-screen for Shn3 inhibitor project, cell-based, Clone20-Shn3RL, cherry-picked (AID 624133). The format is functional. A general note: Counterscreens check selectivity or assay interference.
Assay [2] has as its target T1, Short transient receptor potential channel 4 (Mus musculus, UniProt Q9QUQ5).
T1 sequence (Q9QUQ5 whole entry): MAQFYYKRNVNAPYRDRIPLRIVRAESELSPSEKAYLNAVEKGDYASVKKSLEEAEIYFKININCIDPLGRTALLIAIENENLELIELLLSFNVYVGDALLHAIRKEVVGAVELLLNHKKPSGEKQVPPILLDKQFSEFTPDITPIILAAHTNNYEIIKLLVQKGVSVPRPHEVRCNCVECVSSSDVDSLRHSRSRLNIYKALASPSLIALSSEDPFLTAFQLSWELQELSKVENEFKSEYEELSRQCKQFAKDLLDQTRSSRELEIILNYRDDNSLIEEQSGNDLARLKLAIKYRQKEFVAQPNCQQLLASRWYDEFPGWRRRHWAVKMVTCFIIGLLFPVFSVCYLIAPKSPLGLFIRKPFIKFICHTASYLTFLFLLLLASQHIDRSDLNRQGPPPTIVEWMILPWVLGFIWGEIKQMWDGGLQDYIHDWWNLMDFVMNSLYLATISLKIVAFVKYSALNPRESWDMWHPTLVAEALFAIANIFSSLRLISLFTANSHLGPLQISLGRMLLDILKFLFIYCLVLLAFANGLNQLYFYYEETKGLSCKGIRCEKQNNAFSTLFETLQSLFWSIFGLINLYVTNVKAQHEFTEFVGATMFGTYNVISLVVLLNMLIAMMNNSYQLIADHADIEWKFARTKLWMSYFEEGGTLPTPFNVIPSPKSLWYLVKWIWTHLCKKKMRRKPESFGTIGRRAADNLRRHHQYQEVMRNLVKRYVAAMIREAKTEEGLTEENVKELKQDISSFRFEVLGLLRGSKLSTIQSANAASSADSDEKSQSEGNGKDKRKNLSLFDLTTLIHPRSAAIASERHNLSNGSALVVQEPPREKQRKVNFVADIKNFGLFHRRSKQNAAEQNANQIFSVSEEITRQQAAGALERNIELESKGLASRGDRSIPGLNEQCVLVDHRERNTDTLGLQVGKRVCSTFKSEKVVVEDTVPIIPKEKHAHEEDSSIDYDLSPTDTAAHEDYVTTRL
Nature of the assay: mouse TRPC4 channel inhibitors, dose response, cell-based, HEK293 TRPC4/mu-opioid, Fluo-4 calcium (AID 434942).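 Further: potency of inhibitors blocking the TRPC4 calcium response.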 The format is functional.

Assay [3] in a line: Shn3 3'UTR reporter inhibitors, dose response, cell-based, Clone20 osteoblasts, firefly luciferase, cherry-picked (AID 624132).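 Further: firefly luciferase luminescence from reporter carrying the Shn3 3'UTR in osteoblasts.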 The format is functional.
Assay [4] addresses Nonstructural protein 1 (Influenza A virus, UniProt Q194T2). The format is functional, Influenza A virus (A/California/07/2009(H1N1)).
Assay [5] concerns the target Glucose-6-phosphate 1-dehydrogenase (Homo sapiens, UniProt P11413). Put plainly: human G6PD enzyme inhibitors, dose response, selectivity assay for P. falciparum G6PD inhibitor project, biochemical, fluorescence (AID 504792). The format is functional.
Assay [6] can be described thus: inhibitors of intracellular T. cruzi replication, confirmation, NIH3T3 host cells, beta-gal luminescence (AID 2044).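 Further: intracellular parasites grown in NIH/3T3 mouse fibroblasts as host cells; luminescent beta-galactosidase reporter signal from transgenic T. cruzi replicating inside host cells; inhibitors lower the luminescence signal.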 The format is functional, cell-based.
Assay [7] deals with T2, Streptokinase A (Streptococcus pyogenes serotype M1, UniProt P10520).
T2 sequence (P10520 whole entry): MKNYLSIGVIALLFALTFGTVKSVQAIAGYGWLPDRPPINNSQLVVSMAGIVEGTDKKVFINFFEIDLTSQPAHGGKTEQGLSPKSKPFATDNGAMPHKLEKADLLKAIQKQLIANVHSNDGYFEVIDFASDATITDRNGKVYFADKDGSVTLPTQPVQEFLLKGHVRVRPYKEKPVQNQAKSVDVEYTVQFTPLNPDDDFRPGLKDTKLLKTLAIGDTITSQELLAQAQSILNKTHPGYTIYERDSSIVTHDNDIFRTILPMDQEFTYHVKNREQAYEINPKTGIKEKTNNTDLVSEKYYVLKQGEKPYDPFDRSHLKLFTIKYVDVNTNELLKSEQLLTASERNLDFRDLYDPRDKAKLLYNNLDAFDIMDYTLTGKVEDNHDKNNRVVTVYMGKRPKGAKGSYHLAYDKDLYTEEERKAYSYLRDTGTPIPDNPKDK
Put plainly: S. pyogenes streptokinase expression inhibitors, potency, dose response, plasminogen activation absorbance, OD405 (AID 1914).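 Further: secreted streptokinase activity via plasminogen activation per viability signal from cell pellet.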 The format is functional, Streptococcus pyogenes M1 GAS.

Assay [8] in a line: StAR promoter reporter inhibition counter-screen, dose response, counter-screen for LRH-1 inverse agonist project, cell-based, luminescence, luciferase reporter (AID 651969). The format is functional.
In assay [9] the test system is Streptococcus sp. 'group A'. Nature of the assay: growth inhibition of control SK(-) GAS strain, dose response, counter-screen for streptokinase expression inhibitor project, luminescence, kanamycin, BacTiterGlo, confirmation (AID 1900). The format is functional, organism-based.
A short description of assay [10]: cytotoxicity toward NIH3T3 fibroblasts, dose response, counter-screen, cell-based, ATP luminescence, mouse fibroblasts (AID 2010).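 Further: cells exposed to compound for about 90 hours before reading.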 The format is functional.
In assay [11] the target is Steroidogenic factor 1 (Homo sapiens, UniProt Q13285). Put plainly: Counterscreen for inverse agonists of the liver receptor homolog-1 (LRH-1; NR5A2): Luminescence-based cell-based high throughput dose response assay to identify inverse agonists of the Steroidogenic Factor 1 Nuclear Receptor (SF1; NR5A1). The format is functional.
Sequence of Steroidogenic factor 1 (Q13285 whole entry): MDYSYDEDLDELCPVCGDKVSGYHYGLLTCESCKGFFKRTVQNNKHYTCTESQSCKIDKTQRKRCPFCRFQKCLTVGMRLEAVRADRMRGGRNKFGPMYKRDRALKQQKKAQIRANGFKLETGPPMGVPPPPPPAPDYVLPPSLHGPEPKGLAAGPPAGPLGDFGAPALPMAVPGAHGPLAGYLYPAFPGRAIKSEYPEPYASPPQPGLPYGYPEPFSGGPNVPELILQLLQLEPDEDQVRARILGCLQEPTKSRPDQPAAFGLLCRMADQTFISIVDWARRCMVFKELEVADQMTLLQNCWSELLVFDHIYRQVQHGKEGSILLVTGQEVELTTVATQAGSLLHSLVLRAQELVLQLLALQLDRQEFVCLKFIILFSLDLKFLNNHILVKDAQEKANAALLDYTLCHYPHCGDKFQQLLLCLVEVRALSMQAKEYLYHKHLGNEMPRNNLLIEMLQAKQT
For assay [12], the system named is Streptococcus. Put plainly: Group A Streptococcus viability loss, dose response, counter-screen for streptokinase expression inhibitor project, luminescence, BacTiterGlo (AID 1915).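 Further: potency for reduction of bacterial viability or growth.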 The format is functional, organism-based.
Assay [13] has as its target Nuclear receptor subfamily 5 group A member 2 (Homo sapiens, UniProt O00482). The format is functional, cell-based.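 Further: HEK293T cells transfected with LRH-1 and a StAR promoter luciferase reporter; potency for inhibitors that lower LRH-1 driven reporter light.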
The target in assay [14] is T3, Histone-lysine N-methyltransferase NSD2 (Homo sapiens, UniProt O96028).
T3 sequence (O96028 whole entry): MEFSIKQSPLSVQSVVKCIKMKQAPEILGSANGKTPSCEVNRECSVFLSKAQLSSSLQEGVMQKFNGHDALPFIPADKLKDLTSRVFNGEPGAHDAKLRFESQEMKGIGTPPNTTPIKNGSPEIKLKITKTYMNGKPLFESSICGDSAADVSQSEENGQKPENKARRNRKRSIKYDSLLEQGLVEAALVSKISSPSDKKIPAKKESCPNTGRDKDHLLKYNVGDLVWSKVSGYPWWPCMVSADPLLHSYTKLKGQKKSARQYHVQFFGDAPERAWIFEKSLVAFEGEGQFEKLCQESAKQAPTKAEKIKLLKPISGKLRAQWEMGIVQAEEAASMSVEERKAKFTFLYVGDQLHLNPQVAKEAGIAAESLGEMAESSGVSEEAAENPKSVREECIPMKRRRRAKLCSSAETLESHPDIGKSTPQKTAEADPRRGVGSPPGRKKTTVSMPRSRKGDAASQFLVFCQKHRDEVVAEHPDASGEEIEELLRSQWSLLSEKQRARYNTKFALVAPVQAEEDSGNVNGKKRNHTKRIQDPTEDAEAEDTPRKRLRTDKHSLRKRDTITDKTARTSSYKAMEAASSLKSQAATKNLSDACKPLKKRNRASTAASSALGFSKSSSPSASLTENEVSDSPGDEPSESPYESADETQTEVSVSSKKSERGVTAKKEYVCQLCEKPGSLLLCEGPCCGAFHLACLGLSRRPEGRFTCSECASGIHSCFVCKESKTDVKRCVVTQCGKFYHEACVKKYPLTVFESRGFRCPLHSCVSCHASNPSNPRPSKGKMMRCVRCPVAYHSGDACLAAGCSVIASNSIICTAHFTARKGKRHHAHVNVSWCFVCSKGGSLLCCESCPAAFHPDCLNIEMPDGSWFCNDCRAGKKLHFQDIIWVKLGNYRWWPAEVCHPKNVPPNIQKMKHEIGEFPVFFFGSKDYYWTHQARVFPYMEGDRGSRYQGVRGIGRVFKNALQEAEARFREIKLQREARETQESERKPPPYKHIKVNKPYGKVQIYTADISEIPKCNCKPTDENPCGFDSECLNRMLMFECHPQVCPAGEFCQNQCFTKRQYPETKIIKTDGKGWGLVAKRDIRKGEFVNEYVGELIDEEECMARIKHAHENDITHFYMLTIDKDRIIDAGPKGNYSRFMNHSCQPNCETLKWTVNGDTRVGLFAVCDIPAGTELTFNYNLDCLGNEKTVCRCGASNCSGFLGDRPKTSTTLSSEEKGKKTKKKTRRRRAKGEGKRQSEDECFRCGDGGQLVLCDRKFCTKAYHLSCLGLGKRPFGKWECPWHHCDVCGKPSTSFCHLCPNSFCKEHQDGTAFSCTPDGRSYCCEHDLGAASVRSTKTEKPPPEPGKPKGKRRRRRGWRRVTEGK
The format is biochemical.

Assay [15] is described as follows: MC4R antagonists, dose response, counter-screen for LGR2 antagonist project, cell-based, plate reader, cherry pick (AID 743444).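 Further: transfected HEK 293 cells stimulated with alpha-MSH peptide; potency of inhibitors of the alpha-MSH evoked signal.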 The format is functional.
Assay [16] deals with Cytochrome P450 2D6 (Homo sapiens, UniProt P10635).
Sequence of Cytochrome P450 2D6 (P10635 whole entry): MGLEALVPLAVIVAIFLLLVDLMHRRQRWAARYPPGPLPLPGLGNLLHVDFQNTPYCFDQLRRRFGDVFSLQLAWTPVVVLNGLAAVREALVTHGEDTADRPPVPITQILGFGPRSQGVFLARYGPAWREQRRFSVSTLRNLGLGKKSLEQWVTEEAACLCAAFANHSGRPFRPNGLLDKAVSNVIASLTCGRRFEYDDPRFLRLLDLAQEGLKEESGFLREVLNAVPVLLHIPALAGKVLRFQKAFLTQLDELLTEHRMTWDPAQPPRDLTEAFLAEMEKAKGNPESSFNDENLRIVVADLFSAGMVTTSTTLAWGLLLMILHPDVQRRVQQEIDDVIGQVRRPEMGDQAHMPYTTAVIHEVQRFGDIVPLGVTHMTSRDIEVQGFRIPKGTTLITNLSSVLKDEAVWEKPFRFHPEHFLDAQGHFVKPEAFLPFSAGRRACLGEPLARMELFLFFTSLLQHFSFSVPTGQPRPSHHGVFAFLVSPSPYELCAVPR
For assay [17], the target named is Cytochrome P450 2C19 (Homo sapiens, UniProt P33261). Nature of the assay: Cytochrome panel assay with activity outcomes. Panel member name: p450-cyp2c19 Compounds with AC50 equal or less than 10 uM are considered active. The format is functional. Conditions: read-out: AC50.
Sequence of Cytochrome P450 2C19 (P33261 whole entry): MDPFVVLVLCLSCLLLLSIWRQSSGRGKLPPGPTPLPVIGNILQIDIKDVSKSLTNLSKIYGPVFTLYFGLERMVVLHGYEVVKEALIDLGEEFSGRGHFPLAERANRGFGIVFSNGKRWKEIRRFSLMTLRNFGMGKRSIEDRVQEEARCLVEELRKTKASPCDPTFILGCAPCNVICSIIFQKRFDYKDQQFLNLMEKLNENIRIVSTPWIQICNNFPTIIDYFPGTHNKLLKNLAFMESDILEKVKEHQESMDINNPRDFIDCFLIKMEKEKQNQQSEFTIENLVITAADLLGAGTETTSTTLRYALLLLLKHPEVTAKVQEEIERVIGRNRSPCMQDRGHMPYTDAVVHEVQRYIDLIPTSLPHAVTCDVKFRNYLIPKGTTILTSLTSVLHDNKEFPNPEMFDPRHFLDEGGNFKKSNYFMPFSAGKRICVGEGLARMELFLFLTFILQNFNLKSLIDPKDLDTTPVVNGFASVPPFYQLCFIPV

Molecules are shown by their SMILES. Active and inactive are the calls of the source. Some results are limits rather than exact numbers.

Sequence of Nonstructural protein 1 (Q194T2 whole entry): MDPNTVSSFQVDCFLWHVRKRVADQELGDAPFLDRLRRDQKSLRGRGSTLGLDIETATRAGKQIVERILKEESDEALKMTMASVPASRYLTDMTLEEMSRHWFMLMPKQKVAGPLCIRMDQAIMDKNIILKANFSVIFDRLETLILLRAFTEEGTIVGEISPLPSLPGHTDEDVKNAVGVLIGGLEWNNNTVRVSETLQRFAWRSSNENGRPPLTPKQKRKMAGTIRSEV
Sequence of Nuclear receptor subfamily 5 group A member 2 (O00482 whole entry): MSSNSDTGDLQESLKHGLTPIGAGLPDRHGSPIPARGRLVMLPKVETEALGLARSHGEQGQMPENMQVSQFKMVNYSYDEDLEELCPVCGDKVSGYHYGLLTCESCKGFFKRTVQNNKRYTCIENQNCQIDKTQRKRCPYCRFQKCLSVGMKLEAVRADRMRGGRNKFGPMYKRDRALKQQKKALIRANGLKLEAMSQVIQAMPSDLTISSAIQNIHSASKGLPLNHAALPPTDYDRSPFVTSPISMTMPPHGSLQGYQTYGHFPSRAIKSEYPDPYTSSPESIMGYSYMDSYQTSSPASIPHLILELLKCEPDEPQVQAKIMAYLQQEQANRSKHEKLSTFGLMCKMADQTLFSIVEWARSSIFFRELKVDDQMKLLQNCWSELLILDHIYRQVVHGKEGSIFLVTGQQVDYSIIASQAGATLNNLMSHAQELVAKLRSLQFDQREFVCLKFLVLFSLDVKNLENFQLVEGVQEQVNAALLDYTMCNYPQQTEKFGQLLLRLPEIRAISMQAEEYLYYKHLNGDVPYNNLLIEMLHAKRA
Sequence of Glucose-6-phosphate 1-dehydrogenase (P11413 whole entry): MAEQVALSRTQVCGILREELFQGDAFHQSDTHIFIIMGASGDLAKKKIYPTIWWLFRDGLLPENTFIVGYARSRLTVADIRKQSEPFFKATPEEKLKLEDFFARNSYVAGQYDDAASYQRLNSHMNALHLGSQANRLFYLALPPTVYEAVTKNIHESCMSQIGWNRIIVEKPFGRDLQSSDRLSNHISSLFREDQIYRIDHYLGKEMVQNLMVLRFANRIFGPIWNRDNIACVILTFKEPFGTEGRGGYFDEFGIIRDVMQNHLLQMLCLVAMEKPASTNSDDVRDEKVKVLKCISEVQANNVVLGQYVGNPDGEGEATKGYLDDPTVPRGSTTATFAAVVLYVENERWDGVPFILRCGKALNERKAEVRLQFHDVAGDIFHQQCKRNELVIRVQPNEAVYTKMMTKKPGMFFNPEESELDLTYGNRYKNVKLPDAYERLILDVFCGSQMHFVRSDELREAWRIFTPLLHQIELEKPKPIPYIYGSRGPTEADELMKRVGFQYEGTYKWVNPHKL

The term AC50 denotes the concentration giving half of the maximal activity seen. The EC50 is the concentration that produces a half-maximal response. `O=C(CSc1nnc(-c2ccc(Cl)cc2Cl)n1C1CCCCC1)N1CCCC1`: the AC50 is 23 µM (active) in [1] and > 70 µM (inactive) in [3]. Moreover, the EC50 in [2] is 2.37 µM (active).

One may read the IC50 as the concentration that inhibits the measured activity by half. Take `COc1cc(O)c(C(CCN2CCN(c3ccccc3)CC2)c2ccc(N(C)C)cc2)c(OC)c1` (configuration not stated): the IC50 in [4] was 18.2 µM (active).

In the case of `COc1cc(CNc2ccc3[nH]c(O)nc3c2)ccc1OCc1ccccc1`, the IC50 in assay [5] is > 80 µM (inactive).

`C=CCN1CCN(C(c2cccc(OC)c2OC)c2nnnn2CCC(C)C)CC1` (configuration not stated): the EC50 in [2] is 1.68 µM (active).

Turning to `Cc1ccc(-c2csc(NC(=O)c3ccc([N+](=O)[O-])o3)n2)cc1`, the EC50 in assay [6] was 0.37 µM (active); in assay [7] it was 62.4 µM (active); in [9], 1.89 µM (active); in [10], 12.2 µM (active); in [12], > 150 µM (not active). In addition, the IC50 in [8] was 35.9 µM (inactive); in assay [11], 4.48 µM (active); in assay [13] it was 35.9 µM (inactive).

In the case of `CCC(O)(c1ccc(OC)cc1)C(CN1CCOCC1)c1ccccc1` (configuration not stated), the EC50 in assay [2] was 5.96 µM (active).

For `COc1ccccc1N1CCN(CCCNC(=O)Nc2ccccc2)CC1`, in [2], the EC50 was 1.88 µM (active).

Take `CN(C)c1ccc(CN2CC=C(c3ccc(F)cc3)CC2)cc1`: in [4], the IC50 is 50.2 µM (active). Also, the AC50 in assay [14] was > 20 µM (inactive).

In the case of `CN1c2ccccc2N(C)C1(C)c1cccc2ccccc12`, the EC50 in [6] was 0.544 µM (active); in [10] it was > 30 µM (not active). Moreover, the IC50 in assay [4] is 39.3 µM (active).

In the case of `O=C(CN1CCOc2ccccc21)NCc1ccc(F)cc1`, the AC50 in assay [15] is 29.2 µM (active).

With `Fc1ccccc1COc1ccc(Br)cc1CNCC1CCCO1` (configuration not stated), the 50% effective concentration (EC50) in [2] was 0.944 µM (active).

As to `O=C(CSc1nnc(-c2ccc(Cl)cc2Cl)n1C1CCCCC1)NC1CCS(=O)(=O)C1` (configuration not stated), the AC50 in assay [16] was 35.5 µM (inconclusive); in [17] it was 39.8 µM (inconclusive). Moreover, the EC50 in assay [2] was 1.68 µM (active).

In the case of `O=[N+]([O-])c1ccc(C[n+]2cccc3ccc4cccnc4c32)cc1`, the 50% inhibitory concentration (IC50) in assay [4] is 7.75 µM (active).
